In patent publication US20230286970A1, “NOVEL OXADIAZOLE-BASED SELECTIVE HDAC6 INHIBITORS” (ITALFARMACO S.P.A., priority 2020, published 2023):
pIC50: −log10 of the molar value.

How the values were obtained:
recombinant human HDAC6 = recombinant human HDAC6 (Homo sapiens (Human), UniProt Q9UBN7); assay: Enzymatic screening, HDAC6 inhibition (fluorogenic FdL_G substrate); format: biochemical
Method in brief: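 Enzyme was preincubated with compound (8 doses, triplicate, 1% DMSO) in 25 mM Tris-HCl pH 8, 130 mM NaCl, 0.05% Tween-20, 10% glycerol, with BSA. A FLUOR DE LYS-Green substrate was then added, and fluorescence was read after developer plus 2 μM TSA.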

recombinant human HDAC1 = recombinant human HDAC1 (Homo sapiens (Human), UniProt Q13547); assay: Enzymatic screening, HDAC1 inhibition (fluorogenic FdL_G substrate); format: biochemical
Method in brief: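 Recombinant human HDAC1 inhibition was measured fluorometrically using the FLUOR DE LYS-Green (FdL_G) substrate. Compounds at 8 doses (1% DMSO final) in Tris-HCl pH 8 buffer with NaCl, Tween-20 and glycerol were preincubated in triplicate with enzyme and 1 mg/mL BSA, then given substrate. Developer I plus 2 μM TSA was added, and fluorescence read after 25 minutes in the dark.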

HDAC2 = HDAC2 (Homo sapiens (Human), UniProt Q92769); assay: Enzymatic screening, HDAC2 inhibition; format: biochemical
Description: (§1) For each test compound, 100× concentrated DMSO solutions at 8 doses were prepared and then diluted in assay buffer (25 mM Tris-HCl, pH 8, 130 mM NaCl, 0.05% Tween-20, 10% Glycerol) to obtain 5× concentrated solutions in relation to the final concentrations (typical final concentration range—6.4-200000 nM or 0.18-50000 nM, final DMSO content—1%). Then 10 μL solution of each test compound concentration were placed on a 96-well plate in triplicate and 15 μL of 3.33× concentrated enzyme solution in the assay buffer containing 3.33× concentrated BSA (final BSA concentration—2 mg/mL for HDAC4, HDAC5 and HDAC9 or 1 mg/mL for other isoforms) and in the case of HDAC6-3.33× concentrated TCEP (final TCEP concentration—200 μM) were added to each well. After a period of preincubation (incubation times and temperatures vary for different isoforms and are shown in table 1) 25 μL of solution containing the substrate were added. As substrate, FLUOR DE LYS® deacetylase substrate (Enzo Life Sciences, cat: BML-KI104, FdL), FLUOR DE LYS®-Green substrate (Enzo Life Sciences, cat: BML-KI572, FdL_G) or Boc-Lys(Tfa)-AMC (Bachem, cat: 4060676.005, Tfal)—2× concentrated solution in assay buffer were used. Following a reaction period (reaction times and temperatures vary for different isoforms and are reported in Table 1), 50 μL of the development solution consisting of concentrate FLUOR DE LYS® developer I (Enzo Life Sciences, ca: BML-KI105), diluted 200 times in buffer (50 mM Tris-HCl, pH 8, 137 mM NaCl, 2.7 mM KCl, 1 mM MgCl2) plus 2 μM TSA was added and, after 25 minutes at room temperature in the dark, using the Victor 1420 Multilabel Counter Perkin Elmer Wallac instrument, the fluorescence reading was carried out.

HDAC3 = HDAC3 (Homo sapiens (Human), UniProt O15379); assay: Enzymatic screening, HDAC3 inhibition; format: biochemical
Description: as §1

HDAC4 = HDAC4 (Homo sapiens (Human), UniProt P56524); assay: Enzymatic screening, HDAC4 inhibition; format: biochemical
Description: as §1

HDAC5 = HDAC5 (Homo sapiens (Human), UniProt Q9UQL6); assay: Enzymatic screening, HDAC5 inhibition; format: biochemical
Description: as §1

HDAC7 = HDAC7 (Homo sapiens (Human), UniProt Q8WUI4); assay: Enzymatic screening, HDAC7 inhibition; format: biochemical
Description: as §1

HDAC8 = HDAC8 (Homo sapiens (Human), UniProt Q9BY41); assay: Enzymatic screening, HDAC8 inhibition; format: biochemical
Description: as §1

HDAC9 = HDAC9 (Homo sapiens (Human), UniProt Q9UKV0); assay: Enzymatic screening, HDAC9 inhibition; format: biochemical
Description: as §1

HDAC10 = HDAC10 (Homo sapiens (Human), UniProt Q969S8); assay: Enzymatic screening, HDAC10 inhibition; format: biochemical
Description: as §1

HDAC11 = HDAC11 (Homo sapiens (Human), UniProt Q96DB2); assay: Enzymatic screening, HDAC11 inhibition; format: biochemical
Description: as §1

[1] = tested on: α-tubulin acetylation in 697 cell line; assay: In vitro α-tubulin acetylation in 697 cell line (ELISA); format: cell-based; details: 16 hours, read-out: fold increase @ 1 uM TubAc (ratio of acetylated tubulin and total tubulin towards control)
Description: The in vitro α-tubulin acetylation determination was evaluated on B 697 promyelocytic cell line.
The test molecules were diluted from 20 mM stock solution in DMSO with RPMI 10% FCS+0.01% DMSO medium at 20× concentration compared to the final concentration, added to the cells (15×10^6 cells in a total volume of 30 mL in RPMI medium 10% FCS+0.01% DMSO) to obtain the final concentrations of 1000, 333, 111, 37 nM and incubated at 37° C., 5% CO2 for 16 hours.
At the end of the incubation period, 5×10^6 cells were taken from each sample, centrifuged for 5 minutes at 1100 rpm and washed in 0.9% NaCl at 4° C. The resulting pellet was lysed by treating at 4° C. for 30 minutes with 150 μl of Complete Lysis-M buffer containing protease inhibitors (Complete Lysis-M Roche+Complete Tablets, Mini Easypack, cat: 4719956001) and phosphatase inhibitor cocktails (PhosStop Easypack, Roche, cat: 4906837001), then centrifuged 10 minutes at 14,000 rpm (20817×g). 0.3 μg of supernatant (total protein extract) were diluted in 100 μl of 1×PBS and immobilized in Maxisorp F96 NUN-IMMUNO Plate (Nunc MaxiSorp flat-bottom, Nunc, cat: 442404) at room temperature overnight. Plates were washed twice with Wash Buffer (PBS1×+0.005% tween 20) and saturated for 1 hour at room temperature with 300 μL of 1×PBS containing 10% FCS. After washing twice with Wash Buffer, the plates were incubated for two hours at room temperature in the presence of anti-acetylated-α-tubulin antibody (Monoclonal Anti-acetylated-tubulin clone 6-11B-1, mouse ascites fluid, Sigma, cat: T6793), 100 μl/well diluted 1:1000 in 1×PBS containing 10% FCS) or with total anti-α-tubulin antibody (Monoclonal Anti-alpha-tubulin produced in mouse, Sigma, cat: T6074). Following washing of the pates 5 times with Wash Buffer the secondary antibody conjugated with the enzyme HRP (Goat anti-Mouse IgG, IgM, IgA (H+L), Thermo Fisher Scientific, cat: A10668), diluted 1:1000 in 1×PBS+10% FBS was added at the volume of 100 μl/well.
After washing 4 times, 100 μl/well of TMB substrate kit was added for 10 minutes at room temperature in the dark. The reaction was stopped by adding 50 μl of 2N H2SO4. The plates were read at Multiskan Spectrum spectrophotometer at a wavelength of 450 nm.
The degree of acetylation was calculated by dividing the absorbance obtained for acetylated α-tubulin by the absorbance of total tubulin.
The results of tubulin acetylation, expressed as fold increase of ratio of acetylated α-tubulin/total α-tubulin, of each sample relative to the control sample (untreated) are summarized in table 6.

Stability in rat plasma = details: after 4 hours, 37° C.
[2] = Stability in human plasma; details: after 4 hours, 37° C.
Description: In order to evaluate the stability to circulating enzymes, test compounds were incubated in human and rat plasma at 37° C. in a thermostated oscillating bath. Each test compound was incubated at μM concentration (50 μM when the samples were analysed by UV/HPLC, 1 or 2 μM when the samples were analysed by LC-MS/MS) for 0, 15, 30 minutes and 1, 2 and 4 hours. The reaction was stopped placing samples on ice bath and adding acidified acetonitrile. After centrifugation (10 minutes at 14000 rpm) an aliquot of the supernatant was diluted with water, filtered with 0.45 μm regenerated cellulose syringe filters and injected in HPLC-UV or in LC-MS/MS. The percentage of the remaining amount at the various incubation times with respect to the initial amount were calculated. The half-life in plasma was also calculated.

[3] = Stability to Phase I metabolism in rat S9 liver fraction; details: after 90 minutes, 37° C.
[4] = Stability to Phase I metabolism in human S9 liver fraction; details: after 90 minutes, 37° C.
Description: Test compounds were incubated in rat and human liver S9 fraction at 37° C. up to 90 minutes in order to evaluate their stability to Phase I metabolism by hepatic enzymes. Each test compound was incubated at μM concentration (50 μM when the samples were analysed by UV/HPLC, 1 or 2 μM when the samples were analysed by LC-MS/MS) with S9 fraction (protein content 2 mg/m L) in 100 mM phosphate buffer (pH 7.4), 3.3 mM MgCl2 and 1.3 mM NADPH for 0, 10, 30, 60 and 90 minutes at 37° C. in a thermostated oscillating bath. The reaction was stopped placing samples on ice bath and adding acidified acetonitrile. After centrifugation (10 minutes at 14000 rpm) an aliquot of the supernatant was diluted with water, filtered with 0.45 μm regenerated cellulose syringe filters and injected in HPLC-UV or in LC-MS/MS. The percentage of the remaining amount at the various incubation times with respect to the initial amount were calculated.

Chain of HDAC9 (Q9UKV0 whole entry): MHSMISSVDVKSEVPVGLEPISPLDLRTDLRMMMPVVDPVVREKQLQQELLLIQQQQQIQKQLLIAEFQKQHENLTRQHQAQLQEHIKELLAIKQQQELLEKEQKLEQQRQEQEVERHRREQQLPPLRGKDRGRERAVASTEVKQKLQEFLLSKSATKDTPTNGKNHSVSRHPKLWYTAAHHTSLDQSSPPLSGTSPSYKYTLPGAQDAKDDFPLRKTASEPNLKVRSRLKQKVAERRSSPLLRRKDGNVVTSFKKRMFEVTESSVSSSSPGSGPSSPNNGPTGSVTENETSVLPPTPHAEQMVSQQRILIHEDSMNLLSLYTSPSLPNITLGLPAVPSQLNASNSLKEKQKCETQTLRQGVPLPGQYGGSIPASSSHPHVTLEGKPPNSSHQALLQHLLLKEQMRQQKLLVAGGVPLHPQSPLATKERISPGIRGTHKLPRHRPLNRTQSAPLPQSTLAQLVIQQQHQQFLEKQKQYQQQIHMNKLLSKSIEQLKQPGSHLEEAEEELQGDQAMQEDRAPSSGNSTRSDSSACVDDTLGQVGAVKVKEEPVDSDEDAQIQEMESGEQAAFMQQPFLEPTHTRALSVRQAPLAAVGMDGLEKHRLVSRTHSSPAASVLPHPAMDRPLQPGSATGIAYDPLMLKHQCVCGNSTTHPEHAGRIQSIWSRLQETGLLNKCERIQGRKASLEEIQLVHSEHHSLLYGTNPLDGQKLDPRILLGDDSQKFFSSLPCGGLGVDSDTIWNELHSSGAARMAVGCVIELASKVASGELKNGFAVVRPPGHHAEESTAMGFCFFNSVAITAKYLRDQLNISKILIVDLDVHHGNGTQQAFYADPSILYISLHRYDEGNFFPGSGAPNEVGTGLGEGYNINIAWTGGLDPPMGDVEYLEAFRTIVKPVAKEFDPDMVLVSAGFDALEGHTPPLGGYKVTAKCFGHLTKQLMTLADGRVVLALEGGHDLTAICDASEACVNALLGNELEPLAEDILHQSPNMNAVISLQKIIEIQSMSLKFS
Chain of HDAC2 (Q92769 whole entry, canonical isoform): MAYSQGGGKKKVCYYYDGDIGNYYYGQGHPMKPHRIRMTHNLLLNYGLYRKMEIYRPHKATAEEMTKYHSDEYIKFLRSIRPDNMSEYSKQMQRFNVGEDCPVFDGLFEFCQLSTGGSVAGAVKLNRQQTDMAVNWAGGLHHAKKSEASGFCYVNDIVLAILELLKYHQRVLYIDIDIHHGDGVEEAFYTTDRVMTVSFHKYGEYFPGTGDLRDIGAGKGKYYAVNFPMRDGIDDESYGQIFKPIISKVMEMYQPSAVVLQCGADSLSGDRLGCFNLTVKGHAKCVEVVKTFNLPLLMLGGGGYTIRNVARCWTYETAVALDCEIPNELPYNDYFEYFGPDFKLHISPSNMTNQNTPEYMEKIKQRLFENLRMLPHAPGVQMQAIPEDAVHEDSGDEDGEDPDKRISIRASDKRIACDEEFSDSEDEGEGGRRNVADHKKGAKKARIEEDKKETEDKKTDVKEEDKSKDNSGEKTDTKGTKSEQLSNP
Chain of recombinant human HDAC1 (Q13547 whole entry): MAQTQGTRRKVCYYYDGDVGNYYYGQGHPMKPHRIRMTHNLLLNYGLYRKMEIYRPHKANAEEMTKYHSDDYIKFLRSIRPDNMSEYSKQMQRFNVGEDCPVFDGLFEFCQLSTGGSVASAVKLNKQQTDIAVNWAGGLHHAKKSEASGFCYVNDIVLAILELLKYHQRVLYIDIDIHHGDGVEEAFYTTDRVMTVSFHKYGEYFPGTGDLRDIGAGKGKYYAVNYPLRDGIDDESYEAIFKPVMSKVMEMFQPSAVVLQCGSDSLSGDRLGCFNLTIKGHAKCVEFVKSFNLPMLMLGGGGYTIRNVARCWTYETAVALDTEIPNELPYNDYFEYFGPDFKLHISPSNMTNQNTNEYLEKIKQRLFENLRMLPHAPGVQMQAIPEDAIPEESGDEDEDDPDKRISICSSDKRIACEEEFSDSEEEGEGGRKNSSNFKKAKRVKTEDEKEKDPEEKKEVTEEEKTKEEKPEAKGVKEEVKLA
Chain of HDAC3 (O15379 whole entry): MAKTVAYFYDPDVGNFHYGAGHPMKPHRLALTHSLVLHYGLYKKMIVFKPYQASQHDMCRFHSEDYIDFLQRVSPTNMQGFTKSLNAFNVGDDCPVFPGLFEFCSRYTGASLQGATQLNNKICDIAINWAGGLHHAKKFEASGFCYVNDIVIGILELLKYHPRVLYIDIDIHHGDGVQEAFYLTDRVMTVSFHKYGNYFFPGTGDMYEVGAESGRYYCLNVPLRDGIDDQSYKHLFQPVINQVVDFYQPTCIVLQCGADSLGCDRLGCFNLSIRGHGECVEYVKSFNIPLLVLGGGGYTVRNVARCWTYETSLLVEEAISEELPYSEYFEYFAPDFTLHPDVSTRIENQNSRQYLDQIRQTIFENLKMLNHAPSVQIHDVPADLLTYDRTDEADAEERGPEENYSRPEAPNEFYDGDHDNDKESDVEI
Chain of HDAC3 (Q9Y618 395-489 partner): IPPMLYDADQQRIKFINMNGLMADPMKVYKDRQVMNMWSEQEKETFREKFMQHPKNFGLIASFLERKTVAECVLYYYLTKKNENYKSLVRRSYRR
Chain of HDAC5 (Q9UQL6 whole entry): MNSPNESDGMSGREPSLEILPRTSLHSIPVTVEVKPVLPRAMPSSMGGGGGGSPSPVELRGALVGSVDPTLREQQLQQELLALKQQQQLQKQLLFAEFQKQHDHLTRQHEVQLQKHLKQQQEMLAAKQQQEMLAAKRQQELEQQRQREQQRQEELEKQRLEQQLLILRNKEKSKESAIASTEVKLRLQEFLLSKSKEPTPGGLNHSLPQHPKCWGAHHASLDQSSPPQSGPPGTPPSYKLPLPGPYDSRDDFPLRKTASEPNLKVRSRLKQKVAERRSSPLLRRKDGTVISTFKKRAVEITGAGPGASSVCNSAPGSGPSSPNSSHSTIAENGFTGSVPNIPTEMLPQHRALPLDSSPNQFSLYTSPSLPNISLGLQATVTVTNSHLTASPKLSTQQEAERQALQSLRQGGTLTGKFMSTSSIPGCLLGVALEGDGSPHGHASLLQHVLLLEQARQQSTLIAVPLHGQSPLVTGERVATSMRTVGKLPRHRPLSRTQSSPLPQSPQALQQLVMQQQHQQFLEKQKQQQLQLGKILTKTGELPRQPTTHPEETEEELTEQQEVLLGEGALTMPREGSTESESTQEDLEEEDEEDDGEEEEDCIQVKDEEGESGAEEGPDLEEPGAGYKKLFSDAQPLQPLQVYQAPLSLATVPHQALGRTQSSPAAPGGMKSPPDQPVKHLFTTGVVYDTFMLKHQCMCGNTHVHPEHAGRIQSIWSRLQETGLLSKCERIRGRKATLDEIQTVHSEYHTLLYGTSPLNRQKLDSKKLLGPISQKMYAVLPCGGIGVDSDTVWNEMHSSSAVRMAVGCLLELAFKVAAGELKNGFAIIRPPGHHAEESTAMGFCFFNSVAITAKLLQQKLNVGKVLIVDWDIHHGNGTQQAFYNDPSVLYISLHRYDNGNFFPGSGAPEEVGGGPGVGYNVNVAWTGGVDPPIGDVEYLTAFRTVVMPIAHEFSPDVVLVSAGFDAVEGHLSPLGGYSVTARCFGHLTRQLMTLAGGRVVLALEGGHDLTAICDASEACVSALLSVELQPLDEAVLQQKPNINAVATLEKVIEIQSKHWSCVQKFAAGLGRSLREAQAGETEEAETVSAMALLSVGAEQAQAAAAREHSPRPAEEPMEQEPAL
Chain of HDAC4 (P56524 whole entry): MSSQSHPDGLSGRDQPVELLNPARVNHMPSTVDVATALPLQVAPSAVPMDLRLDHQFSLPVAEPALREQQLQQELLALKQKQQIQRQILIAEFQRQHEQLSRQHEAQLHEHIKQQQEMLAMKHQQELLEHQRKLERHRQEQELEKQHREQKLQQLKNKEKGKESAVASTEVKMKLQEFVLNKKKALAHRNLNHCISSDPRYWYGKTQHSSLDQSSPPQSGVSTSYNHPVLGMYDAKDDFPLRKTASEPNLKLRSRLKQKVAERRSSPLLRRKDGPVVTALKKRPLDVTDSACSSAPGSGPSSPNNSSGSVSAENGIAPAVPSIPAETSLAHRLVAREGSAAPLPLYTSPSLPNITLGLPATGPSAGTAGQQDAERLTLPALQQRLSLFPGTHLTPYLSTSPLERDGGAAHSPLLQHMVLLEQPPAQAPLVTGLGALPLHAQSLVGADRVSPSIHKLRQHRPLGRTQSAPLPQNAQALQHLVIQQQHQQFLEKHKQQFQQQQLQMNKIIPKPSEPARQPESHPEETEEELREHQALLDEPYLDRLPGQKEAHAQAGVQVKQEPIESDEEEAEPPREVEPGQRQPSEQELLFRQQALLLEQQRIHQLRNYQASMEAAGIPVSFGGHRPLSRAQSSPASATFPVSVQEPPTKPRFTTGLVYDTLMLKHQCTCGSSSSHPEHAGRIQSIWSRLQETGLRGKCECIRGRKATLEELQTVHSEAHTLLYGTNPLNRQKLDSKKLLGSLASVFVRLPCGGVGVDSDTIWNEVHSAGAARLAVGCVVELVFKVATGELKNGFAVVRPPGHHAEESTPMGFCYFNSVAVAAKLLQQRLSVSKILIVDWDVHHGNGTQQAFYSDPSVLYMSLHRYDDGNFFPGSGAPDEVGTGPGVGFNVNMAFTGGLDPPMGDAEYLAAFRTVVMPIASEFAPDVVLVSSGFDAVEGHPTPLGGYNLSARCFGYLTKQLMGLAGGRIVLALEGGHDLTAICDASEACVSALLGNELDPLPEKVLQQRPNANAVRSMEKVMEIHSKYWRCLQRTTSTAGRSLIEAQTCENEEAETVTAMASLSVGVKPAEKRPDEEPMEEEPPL

| SMILES | pIC50 (recombinant human HDAC6) | pIC50 (recombinant human HDAC1) | pIC50 (HDAC2) | pIC50 (HDAC3) | pIC50 (HDAC4) | pIC50 (HDAC5) | pIC50 (HDAC7) | pIC50 (HDAC8) | pIC50 (HDAC9) | pIC50 (HDAC10) | pIC50 (HDAC11) | residual percentage in RAT PLASMA (Stability in rat plasma) [%] | residual percentage in HUMAN PLASMA [2] [%] | residual percentage in RAT S9 FRACTION [3] [%] | residual percentage in HUMAN S9 FRACTION [4] [%] | fold induction at 1 µM [1] |
| --- | --- | --- | --- | --- | --- | --- | --- | --- | --- | --- | --- | --- | --- | --- | --- | --- |
| Nc1nc2cc(-c3cn(Cc4ccc(-c5nnc(C(F)F)o5)cc4)nn3)ccc2[nH]1 [Compd. 8, 5-(1-(4-(5-(difluoromethyl)-1,3,4-oxadiazol-2-yl)benzyl)-1H-1,2,3-triazol-4-yl)-1H-benzo[d]imidazol-2-amine] | 7.85 | < 3.70 | < 4.52 | < 4.52 | < 4.52 | < 4.52 | < 4.52 | < 3.70 | < 4.52 | < 4.52 | < 4.52 | 76 | 99 | 94 | 95 | 10 |
| Nc1ccc(-c2cn(C(CN3CCCC3)c3ccc(-c4nnc(C(F)F)o4)cc3)nn2)cn1 (centres unmarked) [Compd. 124, 5-(1-(1-(4-(5-(difluoromethyl)-1,3,4-oxadiazol-2-yl)phenyl)-2-(pyrrolidin-1-yl)ethyl)-1H-1,2,3-triazol-4-yl)pyridin-2-amine] | 7.33 | < 3.70 |  |  |  |  |  |  |  |  |  | 92 | 94 | 96 | 91 | 13 |
| O=C1Nc2cc(-c3cn(Cc4ccc(-c5nnc(C(F)F)o5)cn4)nn3)ccc2NC12CCNCC2 [compound 41, 6′-(1-((5-(5-(difluoromethyl)-1,3,4-oxadiazol-2-yl)pyridin-2-yl)methyl)-1H-1,2,3-triazol-4-yl)-1′,4′-dihydro-3′H-spiro[piperidine-4,2′-quinoxalin]-3′-one] | 7.72 | 3.91 |  |  |  |  |  |  |  |  |  | 77 | 91 | 92 | 94 | 4 |
| NC(=O)c1cccc(-c2nnn(Cc3ccc(-c4nnc(C(F)F)o4)c(F)c3)n2)c1 [compound 89, 3-(2-(4-(5-(difluoromethyl)-1,3,4-oxadiazol-2-yl)-3-fluorobenzyl)-2H-tetrazol-5-yl)benzamide] | 7.47 | < 3.70 |  |  |  |  |  |  |  |  |  | 82 | 81 | 98 | 96 | 8 |
| NC(=O)c1ccc(-c2nnn(Cc3ccc(-c4nnc(C(F)F)o4)cc3)n2)cc1 [compound 116, 4-(2-(4-(5-(difluoromethyl)-1,3,4-oxadiazol-2-yl)benzyl)-2H-tetrazol-5-yl)benzamide] | 7.36 | < 3.70 |  |  |  |  |  |  |  |  |  | 75 | 82 | 71 | 92 | 5 |

Second part, led by results:

| pIC50 (recombinant human HDAC6) | pIC50 (recombinant human HDAC1) | pIC50 (HDAC2) | pIC50 (HDAC3) | pIC50 (HDAC4) | pIC50 (HDAC5) | pIC50 (HDAC7) | pIC50 (HDAC8) | pIC50 (HDAC9) | pIC50 (HDAC10) | pIC50 (HDAC11) | residual percentage in RAT PLASMA (Stability in rat plasma) [%] | residual percentage in HUMAN PLASMA [2] [%] | residual percentage in RAT S9 FRACTION [3] [%] | residual percentage in HUMAN S9 FRACTION [4] [%] | SMILES | fold induction at 1 µM [1] |
| --- | --- | --- | --- | --- | --- | --- | --- | --- | --- | --- | --- | --- | --- | --- | --- | --- |
| 8.15 | < 3.70 | < 4.52 | < 4.52 | < 4.52 | < 4.52 | < 4.52 | < 3.70 | < 4.52 | < 4.52 | < 4.52 | 79 | 85 | 96 | 93 | Nc1nc2ccc(-c3cn(Cc4ccc(-c5nnc(C(F)F)o5)cn4)nn3)cc2s1 [Compd. 1, 6-(1-((5-(5-(difluoromethyl)-1,3,4-oxadiazol-2-yl)pyridin-2-yl)methyl)-1H-1,2,3-triazol-4-yl)benzo[d]thiazol-2-amine] | 25 |
| 8.00 | < 3.70 | < 4.52 | < 4.52 | < 4.52 | < 4.52 | < 4.52 | < 3.70 | 4.65 | < 4.52 | < 4.52 | 80 | 70 | 90 | 97 | Nc1nc2cc(-c3cn(Cc4ccc(-c5nnc(C(F)F)o5)cn4)nn3)ccc2s1 [Compd. 3, 5-(1-((5-(5-(difluoromethyl)-1,3,4-oxadiazol-2-yl)pyridin-2-yl)methyl)-1H-1,2,3-triazol-4-yl)benzo[d]thiazol-2-amine] | 13 |
| 7.82 | < 3.70 |  |  |  |  |  |  |  |  |  | 69 | 95 | 83 | 89 | CNc1ccc2cc(-c3cn(Cc4ccc(-c5nnc(C(F)F)o5)cn4)nn3)ccc2n1 [compound 34, 6-(1-((5-(5-(difluoromethyl)-1,3,4-oxadiazol-2-yl)pyridin-2-yl)methyl)-1H-1,2,3-triazol-4-yl)-N-methylquinolin-2-amine] | 28 |
